Measured values: patent publication US20210161868A1, “ANTI-INFLAMMATORY THERAPY IN ARRHYTHMOGENIC CARDIOMYOPATHY (ACM)” (Beth Israel Deaconess Medical Center, Inc., priority 2018, published 2021)

System: hearts of Dsg2^mut/mut mice
Assay: Cytokine arrays in mouse hearts
Type: in vivo
Method: Three cohorts of mice at 8 weeks of age were anesthetized and implanted with subcutaneous osmotic mini-pumps (Alzet, Model 1004). These included: 1) Dsg2^mut/mut mice with pumps containing 50 μg/μL Bay11-7082 in a vehicle of 65% DMSO, 15% ethanol, and 20% saline; 2) Dsg2^mut/mut mice with pumps containing an equivalent volume of vehicle; and 3) wildtype mice with pumps containing vehicle. Mice in cohort 1 received 5 mg/kg/day of Bay11-7082 by continuous infusion; those in cohorts 2 and 3 received an equivalent volume of vehicle each day for 4 weeks. At 12 weeks of age, mice were re-anesthetized and new Alzet pumps were implanted for an additional 4 weeks of treatment.
Myocardium from mice was lyzed in RIPA buffer and cardiac myocytes from patient hiPSCs were lysed in TRIzol, and protein in lysates was quantified by standard BCA protein assay. Mouse (R&D Systems, Cat. No. ARY028) and Human (R&D Systems, Cat. No. ARY022B) Proteome Profiler XL Cytokine Arrays were blocked at room temperature for 1 hour before being incubated overnight at 4° C. with 200 μg of myocardial protein in blocking buffer supplied by manufacturer. Additional arrays were incubated overnight at 4° C. with 200 μl of hiPSC-cardiac myocyte culture medium according to the manufacturer's protocol for cell supernatants. Following overnight incubation, arrays were washed four times (10 minutes/wash), incubated at room temperature for 1 hour with Antibody Detection Cocktail, washed an additional four times (10 minutes/wash), then incubated with 1:2,000 Streptavidin-HRP in blocking buffer for 30 minutes at room temperature. Arrays were then washed four times and chemiluminescence was performed using the Chemi Reagent Mix included in the assay kits.
Data are presented as mean±SEM. Specific n-values are inset within each figure legend or table. P<0.05 was deemed statistically significant. As appropriate, associations between continuous dependent variables were tested using Student's paired/unpaired t-tests (binary independent variables) or one-way ANOVA (two or more variables). In the in vivo studies involving Dsg2^mut/mut mice, correlations between (i) ejection fraction and the amounts of myocardial fibrosis and apoptosis, (ii) cytokine expression levels and ejection fraction, and (iii) the levels of each individual cytokine against all other cytokines were made using Pearson's r analysis. Changes in cytokine levels in WT vs. Dsg2^mut/mut and/or untreated vs. Bay 11-7082-treated Dsg2^mut/mut mice were analyzed by two-way ANOVA with Tukey's post-hoc testing. The levels of any cytokines showing a significant change were then correlated with ejection fraction in each animal using Pearson's r analysis. In addition, the levels of all cytokines (n=111) were analyzed in a Pearson's correlation matrix table to correlate the expression level of each individual cytokine with all other cytokines.

[1] = Dsg2^mut/mut (Bay11-7082) vs Dsg2^mut/mut
[2] = Dsg2^mut/mut (Bay11-7082) vs WT
[3] = Dsg2^mut/mut mice with pumps containing 50 μg/μL Bay11-7082

`Cc1ccc(S(=O)(=O)/C=C/C#N)cc1` [Bay 11-7082] was tested, and the Adiponectin expression [1] was <1, the Amphiregulin expression [1] was <1 and the Angiopoietin-1 expression [1] was <1. The Angiopoietin-2 expression [1] was 1-2, the “Angiopoietin-like 3 expression” value [1] was <1 and the BAFF/BLyS/TNFSF13B expression [1] was <1. For the same compound, the C1qR1/CD93 expression [1] was <1, the “C-Reactive Protein/CRP expression” value [1] was <1 and the CCL2/JE/MCP-1 expression [1] was <1. The CCL3/CCL4/MIP-1a/B expression [1] was <1, the CCL5/RANTES expression [1] was <1 and the CCL6/C10 expression [1] was <1. The CCL17/TARC expression [1] was <1, the CCL19/MIP-3B expression [1] was <1 and the CCL20/MIP-3a expression [1] was <1. The CCL21/6Ckine expression [1] was <1, the CCL22/MDC expression [1] was <1 and the CD14 expression [1] was 1-2. For the same compound, the CD40/TNFRSF5 expression [1] was <1, the CD160 expression [1] was <1 and the CX3CL1/Fractalkine expression [1] was <1. For the same compound, the CXCL9/MIG expression [1] was <1, the CXCL13/BLC/BCA-1 expression [1] was <1 and the CXCL16 expression [1] was <1. For the same compound, the Chemerin expression [1] was <1, the “Chitinase 3-like 1 expression” value [1] was <1 and the “Coagulation Factor III/Tissue Factor expression” value [1] was <1. The “Complement Component C5/C5a expression” value [1] was <1, the “Complement Factor D expression” value [1] was <1 and the “Cystatin C expression” value [1] was <1. For the same compound, the DKK-1 expression [1] was <1, the DPPIV/CD26 expression [1] was <1 and the E-Selectin/CD62E expression [1] was <1. The EGF expression [1] was <1, the Endoglin/CD105 expression [1] was <1 and the Endostatin expression [1] was <1. The “Eotaxin (CCL11) expression” value [1] was <1, the FGF acidic expression [1] was <1 and the FGF-21 expression [1] was <1. For the same compound, the “FLt-3 Ligand expression” value [1] was <1, the “Fetuin A/AHSG expression” value [1] was <1 and the G-CSF expression [1] was <1. The GDF-15 expression [1] was <1, the GM-CSF expression [1] was <1 and the “Gas 6 expression” value [1] was <1. The HGF expression [1] was <1, the “I-TAC (Cxcl11) expression” value [1] was <1 and the IFN-y expression [1] was <1. The IGFBP-1 expression [1] was <1, the IGFBP-2 expression [1] was <1 and the IGFBP-3 expression [1] was <1. The IGFBP-5 expression [1] was <1, the IGFBP-6 expression [1] was <1 and the “IL-1a (IL-1F1) expression” value [1] was <1. The “IL-1ra (IL-1F3) expression” value [1] was <1, the “IL-1β (IL-1F2) expression” value [1] was <1 and the IL-2 expression [1] was <1. The IL-3 expression [1] was <1, the IL-4 expression [1] was <1 and the IL-5 expression [1] was <1. The IL-6 expression [1] was <1, the IL-7 expression [1] was <1 and the IL-10 expression [1] was <1. For the same compound, the IL-11 expression [1] was <1, the “IL-12 p40 expression” value [1] was <1 and the IL-13 expression [1] was <1. For the same compound, the IL-15 expression [1] was <1, the IL-17a expression [1] was <1 and the IL-22 expression [1] was <1. For the same compound, the IL-23 expression [1] was <1, the “IL-27 p28 expression” value [1] was <1 and the IL-28A/B expression [1] was <1. The IL-33 expression [1] was <1, the “IP-10 (CXL10/CRG-2) expression” value [1] was <1 and the “KC (CXCL1) expression” value [1] was <1. For the same compound, the “LDL R expression” value [1] was 1-2, the LIF expression [1] was <1 and the LIX expression [1] was <1. For the same compound, the Leptin expression [1] was <1, the Lipocalin-2/NGAL expression [1] was <1 and the M-CSF expression [1] was 1-2. For the same compound, the “MCP-5 (CCL12) expression” value [1] was <1, the “MIP-2 (CXCL2) expression” value [1] was <1 and the MMP-2 expression [1] was 1-2. The MMP-3 expression [1] was 1-2, the MMP-9 expression [1] was <1 and the Myeloperoxidase expression [1] was <1. For the same compound, the “Osteopontin (OPN) expression” value [1] was <1, the Osteoprotegerin/TNFRSF11B expression [1] was <1 and the P-Selectin/CD62P expression [1] was <1. The PD-EGF/Thymidine phosphorylase expression [1] was <1, the PDGF-BB expression [1] was <1 and the “Pentraxin 2/SAP expression” value [1] was <1. For the same compound, the “Pentraxin 3/TSG-14 expression” value [1] was <1, the Periostin/OSF-2 expression [1] was <1 and the Pref-1/DLK-1/FA1 expression [1] was <1. For the same compound, the Proliferin expression [1] was <1, the “Proprotein Convertase 9/PCSK9 expression” value [1] was 1-2 and the RAGE expression [1] was <1. The RBP4 expression [1] was <1, the Reg3G expression [1] was <1 and the Resistin expression [1] was <1. The “Serpin E1/PAI-1 expression” value [1] was <1, the “Serpin F1/PEDF expression” value [1] was <1 and the TIM-1/KIM-1/HAVCR expression [1] was 1-2. The TNF-α expression [1] was <1, the Thrombopoeitin expression [1] was 1-2 and the VCAM-1/CD106 expression [1] was 1-2. For the same compound, the VEGF expression [1] was 1-2, the WISP-1/CCN4 expression [1] was <1 and the “sICAM-1 (CD54) expression” value [1] was <1. The Adiponectin expression [2] was <1, the Amphiregulin expression [2] was <1 and the Angiopoietin-1 expression [2] was <1. The Angiopoietin-2 expression [2] was <1, the “Angiopoietin-like 3 expression” value [2] was <1 and the BAFF/BLyS/TNFSF13B expression [2] was <1. The C1qR1/CD93 expression [2] was <1, the “C-Reactive Protein/CRP expression” value [2] was <1 and the CCL2/JE/MCP-1 expression [2] was <1. The CCL3/CCL4/MIP-1a/B expression [2] was <1, the CCL5/RANTES expression [2] was <1 and the CCL6/C10 expression [2] was <1. For the same compound, the CCL17/TARC expression [2] was <1, the CCL19/MIP-3B expression [2] was <1 and the CCL20/MIP-3a expression [2] was <1. The CCL21/6Ckine expression [2] was <1, the CCL22/MDC expression [2] was <1 and the CD14 expression [2] was <1. The CD40/TNFRSF5 expression [2] was <1, the CD160 expression [2] was <1 and the CX3CL1/Fractalkine expression [2] was <1. The CXCL9/MIG expression [2] was <1, the CXCL13/BLC/BCA-1 expression [2] was 2-4 and the CXCL16 expression [2] was <1. For the same compound, the Chemerin expression [2] was <1, the “Chitinase 3-like 1 expression” value [2] was <1 and the “Coagulation Factor III/Tissue Factor expression” value [2] was <1. The “Complement Component C5/C5a expression” value [2] was <1, the “Complement Factor D expression” value [2] was <1 and the “Cystatin C expression” value [2] was <1. The DKK-1 expression [2] was <1, the DPPIV/CD26 expression [2] was 1-2 and the E-Selectin/CD62E expression [2] was <1. The EGF expression [2] was 1-2, the Endoglin/CD105 expression [2] was <1 and the Endostatin expression [2] was <1. For the same compound, the “Eotaxin (CCL11) expression” value [2] was <1, the FGF acidic expression [2] was <1 and the FGF-21 expression [2] was <1. The “FLt-3 Ligand expression” value [2] was <1, the “Fetuin A/AHSG expression” value [2] was <1 and the G-CSF expression [2] was 1-2. For the same compound, the GDF-15 expression [2] was <1, the GM-CSF expression [2] was <1 and the “Gas 6 expression” value [2] was <1. For the same compound, the HGF expression [2] was 4-6, the “I-TAC (Cxcl11) expression” value [2] was <1 and the IFN-y expression [2] was 1-2. The IGFBP-1 expression [2] was 1-2, the IGFBP-2 expression [2] was <1 and the IGFBP-3 expression [2] was <1. For the same compound, the IGFBP-5 expression [2] was <1, the IGFBP-6 expression [2] was <1 and the “IL-1a (IL-1F1) expression” value [2] was <1. For the same compound, the “IL-1ra (IL-1F3) expression” value [2] was 1-2, the “IL-1β (IL-1F2) expression” value [2] was 6-10 and the IL-2 expression [2] was <1. The IL-3 expression [2] was <1, the IL-4 expression [2] was <1 and the IL-5 expression [2] was <1. The IL-6 expression [2] was <1, the IL-7 expression [2] was <1 and the IL-10 expression [2] was <1. The IL-11 expression [2] was <1, the “IL-12 p40 expression” value [2] was 1-2 and the IL-13 expression [2] was 1-2. For the same compound, the IL-15 expression [2] was 2-4, the IL-17a expression [2] was <1 and the IL-22 expression [2] was <1. For the same compound, the IL-23 expression [2] was <1, the “IL-27 p28 expression” value [2] was <1 and the IL-28A/B expression [2] was 1-2. For the same compound, the IL-33 expression [2] was 2-4, the “IP-10 (CXL10/CRG-2) expression” value [2] was <1 and the “KC (CXCL1) expression” value [2] was <1. The “LDL R expression” value [2] was 1-2, the LIF expression [2] was <1 and the LIX expression [2] was >10. For the same compound, the Leptin expression [2] was 1-2, the Lipocalin-2/NGAL expression [2] was <1 and the M-CSF expression [2] was >20. The “MCP-5 (CCL12) expression” value [2] was <1, the “MIP-2 (CXCL2) expression” value [2] was <1 and the MMP-2 expression [2] was 4-6. For the same compound, the MMP-3 expression [2] was <1, the MMP-9 expression [2] was <1 and the Myeloperoxidase expression [2] was 2-4. For the same compound, the “Osteopontin (OPN) expression” value [2] was 4-6, the Osteoprotegerin/TNFRSF11B expression [2] was <1 and the P-Selectin/CD62P expression [2] was >10. The PD-EGF/Thymidine phosphorylase expression [2] was <1, the PDGF-BB expression [2] was 1-2 and the “Pentraxin 2/SAP expression” value [2] was 1-2. The “Pentraxin 3/TSG-14 expression” value [2] was <1, the Periostin/OSF-2 expression [2] was <1 and the Pref-1/DLK-1/FA1 expression [2] was 6-10. The Proliferin expression [2] was 6-10, the “Proprotein Convertase 9/PCSK9 expression” value [2] was <1 and the RAGE expression [2] was <1. The RBP4 expression [2] was 1-2, the Reg3G expression [2] was 6-10 and the Resistin expression [2] was 2-4. The “Serpin E1/PAI-1 expression” value [2] was 6-10, the “Serpin F1/PEDF expression” value [2] was <1 and the TIM-1/KIM-1/HAVCR expression [2] was <1. For the same compound, the TNF-α expression [2] was 1-2, the Thrombopoeitin expression [2] was <1 and the VCAM-1/CD106 expression [2] was 6-10. The VEGF expression [2] was <1, the WISP-1/CCN4 expression [2] was <1 and the “sICAM-1 (CD54) expression” value [2] was 1-2. The “LIX (CXCL5) level” value [3] was “markedly reduced”, the OPN expression [3] was “reduced” and the “increased expression of cytokines in Dsg2^mut/mut hearts” value (in most, but not all, cases) was “blunted or fully normalized”.
